{"source": "paper PMC2362861", "about": "“Potent interaction of flavopiridol with MRP1” (British Journal of Cancer, 1999)", "key": {"GLC4/ADR": {"system": "GLC4/ADR", "assay": "Growth inhibition assay, GLC4/ADR", "type": "cell-based, human", "details": "for Resistance of MRP1 overexpressing cells: 72-h exposures; for IC50: Homo sapiens, GLC-4/ADR, 72 h, read-out: IC50 value"}, "GLC4": {"system": "GLC4", "assay": "Growth inhibition assay, GLC4", "type": "cell-based, human", "details": "for IC50: Homo sapiens, read-out: IC50 value"}, "GLC4/ADR cells": {"system": "GLC4/ADR cells", "assay": "Steady-state cellular [3H]daunorubicin accumulation in GLC4/ADR cells", "type": "cell-based, human", "details": "for Effect on accumulation of DNR in GLC4/ADR cells: 50 µM (μM); for Accumulation of daunorubicin, mean percentages of control (set at 100%): (iso)flavonoid 50 µM (μM), 0.5 M DNR, 75 min"}, "GLC4 cells": {"system": "GLC4 cells", "assay": "Steady-state cellular [3H]daunorubicin accumulation in GLC4 cells", "type": "cell-based, human", "details": "for Effect on accumulation of DNR in GLC4 cells: 50 µM (μM); for Accumulation of daunorubicin, mean percentages of control (set at 100%): GLC4, (iso)flavonoid 50 µM (μM), 0.5 M DNR, 75 min"}, "MRP1 ATPase activity": {"molecular_target": "T1, MRP1 ATPase activity (Homo sapiens, UniProt P33527)", "T1 construct": "plasma membrane vesicles prepared from the MRP1 overexpressing cell line GLC4/ADR; endogenous in cells; host or cells: GLC4/ADR (adriamycin-selected human small-cell lung cancer subline); plasma membrane vesicles", "T1 sequence (P33527 whole entry)": "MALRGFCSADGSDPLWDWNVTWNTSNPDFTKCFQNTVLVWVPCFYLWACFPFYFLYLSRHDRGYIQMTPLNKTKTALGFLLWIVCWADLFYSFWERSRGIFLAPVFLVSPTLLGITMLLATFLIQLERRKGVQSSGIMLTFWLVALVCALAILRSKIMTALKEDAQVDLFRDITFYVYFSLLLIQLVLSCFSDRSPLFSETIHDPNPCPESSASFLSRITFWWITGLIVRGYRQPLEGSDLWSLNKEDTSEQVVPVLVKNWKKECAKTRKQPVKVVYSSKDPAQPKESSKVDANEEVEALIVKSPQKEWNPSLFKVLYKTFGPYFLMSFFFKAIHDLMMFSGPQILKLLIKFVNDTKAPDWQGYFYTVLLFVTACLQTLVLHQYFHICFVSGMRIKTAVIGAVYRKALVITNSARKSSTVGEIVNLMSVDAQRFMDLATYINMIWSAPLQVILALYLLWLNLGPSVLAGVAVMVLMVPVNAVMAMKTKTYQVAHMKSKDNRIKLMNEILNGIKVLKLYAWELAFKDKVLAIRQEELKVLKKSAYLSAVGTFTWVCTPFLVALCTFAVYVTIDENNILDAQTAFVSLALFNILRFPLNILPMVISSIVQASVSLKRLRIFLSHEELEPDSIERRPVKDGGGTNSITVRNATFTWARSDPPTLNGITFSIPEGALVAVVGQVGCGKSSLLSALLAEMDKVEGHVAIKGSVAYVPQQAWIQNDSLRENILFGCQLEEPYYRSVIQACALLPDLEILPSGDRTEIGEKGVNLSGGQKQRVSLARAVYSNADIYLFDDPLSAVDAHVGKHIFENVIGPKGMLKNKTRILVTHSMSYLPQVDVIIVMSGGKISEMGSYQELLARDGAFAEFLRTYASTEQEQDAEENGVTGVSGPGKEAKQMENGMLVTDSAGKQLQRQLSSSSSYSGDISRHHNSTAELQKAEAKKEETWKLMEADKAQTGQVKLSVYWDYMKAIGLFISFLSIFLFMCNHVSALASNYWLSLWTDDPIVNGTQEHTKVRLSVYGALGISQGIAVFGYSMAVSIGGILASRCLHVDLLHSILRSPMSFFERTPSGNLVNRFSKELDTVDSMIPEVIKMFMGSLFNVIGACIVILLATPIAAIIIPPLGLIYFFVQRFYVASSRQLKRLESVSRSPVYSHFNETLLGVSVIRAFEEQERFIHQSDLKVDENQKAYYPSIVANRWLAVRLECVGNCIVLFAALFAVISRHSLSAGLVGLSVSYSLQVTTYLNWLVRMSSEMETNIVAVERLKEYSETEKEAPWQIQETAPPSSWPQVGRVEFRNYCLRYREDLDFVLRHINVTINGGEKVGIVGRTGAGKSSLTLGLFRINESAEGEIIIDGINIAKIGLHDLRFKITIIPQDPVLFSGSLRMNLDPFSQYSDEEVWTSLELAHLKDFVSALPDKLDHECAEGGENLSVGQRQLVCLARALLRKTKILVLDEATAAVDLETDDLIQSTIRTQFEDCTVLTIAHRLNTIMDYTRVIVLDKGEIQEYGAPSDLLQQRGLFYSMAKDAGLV", "assay": "ATPase activity of GLC4/ADR plasma membranes (colourimetric inorganic phosphate)", "type": "biochemical", "details": "for Induction of ATPase activity of GLC4/ADR membranes in the concentration range tested: glycosylated (iso)flavonoids, Figure 4", "excerpt": "One form of cellular resistance, directed against a wide spectrum of natural agents, is referred to as multidrug resistance (MDR). […] The ATP-dependent transport of anticancer drugs out of tumour cells that express MDR proteins may at least theoretically lead to impaired treatment outcome of patients. […] 1-Chloro-2,4-dinitrobenzene (CDNB) was from Sigma (St Louis, MO, USA). […] The isoflavonoid genis- tein was from ICN Biomedicals (Zoetermeer, The Netherlands). […] The (iso)flavonoids were dissolved as a stock solution of 40 mM in dimethyl sulphoxide (DMSO; Across Chimica, Belgium) and stored at -20C. Before experiments, 1:1 dilutions were made in ethanol, followed by a dilution in ethanol/water (1: 3; v/v) to the appropriate concentrations. The maximal concentration of DMSO and ethanol, which was also added to the controls, was 0.5% (v/v). Membrane filters OE67 were from Schleicher and Schuell (Dassel, Germany). Doxorubicin hydrochloride was from Laboratoire Roger Bellon (France). […] S1(MRP1) cells were cultured in the presence of G418 until 2-10 days before experiments. […] Cells were harvested by centrifugation (275 g, 5 min) and washed twice in phosphate-buffered saline. Subsequently, the cells were incubated in 100 mM potassium chloride (KCl), 5 mM magnesium chloride (MgCl2 ), 1 mM phenylmethylsulphonyl fluoride and 50 mM HEPES-KOH (pH 7.4) for 1 h at 0C, in order to allow the cells to swell. Then the cells were ultrasonicated at 20% of the maximum power of an MSE sonicator (Soniprep 150) for three bursts of 15 s. The suspension was centrifuged at 1500 g for 10 min. […] After centrifugation at 100 000 g for 60 min the interface was removed and washed in 100 mM KC1-50 mM HEPES-5 mM MgCl2 buffer (pH 7.4). The final membrane preparations were stored at -80C at a protein concentration of ~ 4 mg ml-1 . […] Vesicles were incubated in KCl-HEPES buffer (pH 7.4) at 37C (protein concentration ~ 0.25 mg ml-1 ), in the presence of 10 mM MgCl2 with or without 1 mM ATP and tritium-labelled DNP-SG. The reaction was stopped by adding ice-cold KCl-HEPES buffer. After rapid filtration, the filters were washed twice with KCl-HEPES buffer. The radioactivity on the filters was measured by liquid scintillation counting. […] Plasma membranes were incubated for 1 h in KCl-HEPES buffer (pH 7.4) at 37C, in the presence of 1 mM EGTA, 1 mM sodium azide and 0.1 mM ouabain, with or without 1 mM ATP. […] Plasma membranes from GLC4 cells (black bars) and GLC4 /ADR cells (white bars) were incubated with 10 nM DNP-SG in the absence or presence of the MIB6 antibody (MIB6) (10 g ml-1 ) or an MRP1 control antibody (10 g ml-1 ). […] In short, anti-MRP1 antibodies were tested for their capacity to inhibit DNP-SG transport into GLC4 /ADR inside-out plasma membrane vesicles."}, "S1(1.1)": {"system": "S1(1.1)", "assay": "Growth inhibition assay, S1(1.1)", "type": "cell-based", "details": "Homo sapiens, 72 h, read-out: IC50 value"}, "S1(MRP)": {"system": "S1(MRP)", "assay": "Growth inhibition assay, S1(MRP)", "type": "cell-based, human", "details": "Homo sapiens, 72 h; S1(MRP); 3 days drug exposure; read-out: IC50 value"}, "SW1573": {"system": "SW1573", "assay": "Growth inhibition assay, SW1573", "type": "cell-based", "details": "Homo sapiens, read-out: IC50 value"}, "MRP1": {"molecular_target": "T2, MRP1 (Homo sapiens, UniProt P33527)", "T2 construct": "using MRP1-transfected cells and several couples of MRP1 overexpressing cell lines and their parental cell lines; endogenous in cells; host or cells: GLC4, GLC4/ADR, HL60, HL60/ADR and SW1573 (endogenous)", "T2 sequence (P33527 whole entry)": "as above", "assay": "ATP-dependent uptake of DNP-SG into GLC4/ADR plasma membrane vesicles", "type": "biochemical", "details": "using 100 nM DNP-SG", "excerpt": "One form of cellular resistance, directed against a wide spectrum of natural agents, is referred to as multidrug resistance (MDR). […] The ATP-dependent transport of anticancer drugs out of tumour cells that express MDR proteins may at least theoretically lead to impaired treatment outcome of patients. […] 1-Chloro-2,4-dinitrobenzene (CDNB) was from Sigma (St Louis, MO, USA). […] The isoflavonoid genis- tein was from ICN Biomedicals (Zoetermeer, The Netherlands). […] The (iso)flavonoids were dissolved as a stock solution of 40 mM in dimethyl sulphoxide (DMSO; Across Chimica, Belgium) and stored at -20C. Before experiments, 1:1 dilutions were made in ethanol, followed by a dilution in ethanol/water (1: 3; v/v) to the appropriate concentrations. The maximal concentration of DMSO and ethanol, which was also added to the controls, was 0.5% (v/v). Membrane filters OE67 were from Schleicher and Schuell (Dassel, Germany). Doxorubicin hydrochloride was from Laboratoire Roger Bellon (France). […] S1(MRP1) cells were cultured in the presence of G418 until 2-10 days before experiments. […] Cells were harvested by centrifugation (275 g, 5 min) and washed twice in phosphate-buffered saline. […] The radioactivity on the filters was measured by liquid scintillation counting. […]"}}, "note": "Read-outs that look alike come from different tables or passages of the source.", "data": [{"compound": "CCCN(CCC)S(=O)(=O)c1ccc(C(=O)O)cc1", "note": "[probenecid]", "values": [{"measurement": "Effect of simultaneous incubation with probenecid on the cytotoxic effect of flavopiridol", "setting": "GLC4/ADR; GLC4/ADR, probenecid 0.5 mM, data not shown", "result": "did not alter"}, {"measurement": "Effect of simultaneous incubation with probenecid on the cytotoxic effect of flavopiridol", "setting": "GLC4; GLC4, probenecid 0.5 mM, data not shown", "result": "did not alter"}]}, {"compound": "O=c1c(O[C@@H]2O[C@H](CO)[C@@H](O)[C@H](O)[C@H]2O)c(-c2ccc(O)cc2)oc2cc(O)cc(O)c12", "note": "[Kaempferol-3 glucose, kaempferol-3-glucose]", "values": [{"measurement": "Effect on accumulation of DNR in GLC4/ADR cells", "setting": "GLC4/ADR cells", "result": "did not increase accumulation of DNR"}, {"measurement": "Effect on accumulation of DNR in GLC4 cells", "setting": "GLC4 cells", "result": "small, but significant decrease"}]}, {"compound": "O=c1c(-c2ccc(O)cc2)coc2cc(O[C@@H]3O[C@H](CO)[C@@H](O)[C@H](O)[C@H]3O)cc(O)c12", "note": "[Genistin, genistein-7-glucose]", "values": [{"measurement": "Effect on accumulation of DNR in GLC4/ADR cells", "setting": "GLC4/ADR cells", "result": "did not increase accumulation of DNR"}, {"measurement": "Accumulation of daunorubicin, mean percentages of control (set at 100%)", "setting": "GLC4/ADR cells; GLC4/ADR", "result": 96, "unit": "%"}, {"measurement": "Accumulation of daunorubicin, mean percentages of control (set at 100%)", "setting": "GLC4 cells", "result": 101, "unit": "%"}, {"measurement": "Induction of ATPase activity of GLC4/ADR membranes in the concentration range tested", "setting": "MRP1 ATPase activity", "result": "did not induce ATPase activity"}]}, {"compound": "O=c1cc(-c2ccc(O)cc2)oc2cc(O)cc(O)c12", "note": "[Apigenin, apigenin]", "values": [{"measurement": "Effect on accumulation of DNR in GLC4/ADR cells", "setting": "GLC4/ADR cells", "result": "increased the accumulation of DNR"}, {"measurement": "Accumulation of daunorubicin, mean percentages of control (set at 100%)", "setting": "GLC4 cells", "result": 91, "unit": "%"}]}, {"compound": "O=c1cc(-c2ccc(O)cc2)oc2cc(O[C@@H]3O[C@H](CO)[C@@H](O)[C@H](O)[C@H]3O)cc(O)c12", "note": "[Apigetrin, apigenin-7-glucose]", "values": [{"measurement": "Effect on accumulation of DNR in GLC4/ADR cells", "setting": "GLC4/ADR cells", "result": "did not increase accumulation of DNR"}, {"measurement": "Accumulation of daunorubicin, mean percentages of control (set at 100%)", "setting": "GLC4/ADR cells; GLC4/ADR", "result": 57, "unit": "%"}, {"measurement": "Effect on accumulation of DNR in GLC4 cells", "setting": "GLC4 cells", "result": "small, but significant decrease"}, {"measurement": "Induction of ATPase activity of GLC4/ADR membranes in the concentration range tested", "setting": "MRP1 ATPase activity", "result": "did not induce ATPase activity"}]}, {"compound": "O=c1c(-c2ccc(O)cc2)coc2cc(O)cc(O)c12", "note": "[Genistein, genistein]", "values": [{"measurement": "IC50", "setting": "S1(1.1); S1(1.1), 3 days drug exposure", "result": 9, "unit": "µM"}, {"measurement": "Effect on accumulation of DNR in GLC4/ADR cells", "setting": "GLC4/ADR cells", "result": "increased the accumulation of DNR"}, {"measurement": "Difference of DNR accumulation from control (P < 0.05)", "setting": "GLC4/ADR cells; GLC4/ADR, 10 M genistein (μM), Figure 6", "result": "gave a significant difference"}, {"measurement": "Modulation of cellular accumulation of DNR at low micromolar concentrations", "setting": "GLC4/ADR cells; GLC4/ADR, Figure 6", "result": "did not modulate"}, {"measurement": "Resistance of MRP1 overexpressing cells", "setting": "GLC4/ADR", "result": "No resistance"}, {"measurement": "IC50", "setting": "GLC4/ADR; GLC4/ADR, 3 days drug exposure", "result": 13, "unit": "µM"}, {"measurement": "IC50", "setting": "S1(MRP)", "result": 9, "unit": "µM"}, {"measurement": "Accumulation of daunorubicin, mean percentages of control (set at 100%)", "setting": "GLC4 cells", "result": 107, "unit": "%"}, {"measurement": "ATPase stimulation, % of the control", "setting": "MRP1 ATPase activity; 50 µM genistein (μM), without MIB6", "result": 108, "unit": "%"}, {"measurement": "Concentrations at which ATPase activity of GLC4/ADR membranes was significantly induced", "setting": "MRP1 ATPase activity; GLC4/ADR membranes, lowest effective concentration and higher", "result": "≥ 1", "unit": "µM"}, {"measurement": "IC50", "setting": "SW1573; 72 h, SW1573, 3 days drug exposure", "result": 10, "unit": "µM"}, {"measurement": "IC50", "setting": "GLC4; 72 h, GLC4, 3 days drug exposure", "result": 12, "unit": "µM"}]}, {"compound": "O=c1c(O)c(-c2ccc(O)cc2)oc2cc(O)cc(O)c12", "note": "[Kaempferol, kaempferol]", "values": [{"measurement": "IC50", "setting": "S1(1.1)", "result": 43, "unit": "µM"}, {"measurement": "Effect on accumulation of DNR in GLC4/ADR cells", "setting": "GLC4/ADR cells", "result": "increased the accumulation of DNR"}, {"measurement": "Accumulation of daunorubicin, mean percentages of control (set at 100%)", "setting": "GLC4/ADR cells; GLC4/ADR", "result": 190, "unit": "%"}, {"measurement": "Resistance of MRP1 overexpressing cells", "setting": "GLC4/ADR", "result": "No resistance"}, {"measurement": "IC50", "setting": "GLC4/ADR", "result": 11, "unit": "µM"}, {"measurement": "Accumulation of daunorubicin, mean percentages of control (set at 100%)", "setting": "GLC4 cells", "result": 92, "unit": "%"}, {"measurement": "IC50", "setting": "SW1573; SW1573, 72 h", "result": 29, "unit": "µM"}, {"measurement": "IC50", "setting": "GLC4; GLC4, 72 h", "result": 25, "unit": "µM"}]}, {"compound": "N[C@@H](CCC(=O)N[C@@H](CSc1ccc([N+](=O)[O-])cc1[N+](=O)[O-])C(=O)NCC(=O)O)C(=O)O", "note": "[DNP-SG, dinitrophenyl-S-glutathione]", "values": [{"measurement": "ATP-dependent uptake of DNP-SG into GLC4/ADR vesicles", "setting": "MRP1", "result": 490, "unit": "pmol mg protein-1 min-1"}, {"measurement": "Stimulation of basal ATPase activity of GLC4/ADR membranes above the control", "setting": "MRP1 ATPase activity; 10 M DNP-SG (μM)", "result": 4.5, "unit": "nmol mg protein-1 min-1"}, {"measurement": "ATPase activity stimulation compared to the control", "setting": "MRP1 ATPase activity; 10 M DNP-SG (μM), without MIB6", "result": 125, "unit": "%"}]}]}
